Data published in patent US20190167579A1, “ITRACONAZOLE DRY POWDERS” (priority 2017, published 2019).

System: Calu-3 cell line
Experiment: cNGI integrated dissolution and permeability on Calu-3 monolayers
Format: in vitro ADME
Description: A bio-relevant dissolution testing system was used based on mimicking the air-liquid interface at the respiratory epithelium interface using a cell-based in vitro method. A modified next generation impactor that incorporated cell culture plates onto collection stages (cNGI) was used to uniformly deposit materials onto the cell cultures. Dissolution and permeation of the drug through the epithelial cell monolayer was measured.
Epithelial cell monolayers grown at the air-liquid interface in Snapwell™ (Corning Costar, Massachusetts, USA) permeable insert were integrated into the cNGI. […] The transepithelial electrical resistance (TEER) was measured using an EVOM2 chopstick electrode connected to an EVOM2 Epithelial Voltohmmeter (World Precision Instruments, Hitchin, United Kingdom) and monolayers with a TEER above 450 Ω·cm^2 were deemed confluent. […]
Post-dosing of the dose on to the Snapwells from stage 4, the Snapwells were transferred to 6-well plates, which contained 2mL of PBS pH 7.4±2.0% SDS maintained at 37° C. Basolateral samples were taken at different time points and drug content was measured on an Agilent (Santa Clara, Calif., USA) 1260 Infinity series HPLC. Total dose delivered to the cells was measured from the total amount of drug dissolved over the time-course and from lysing cells post experimentation. […]

- Dissolution and permeability kinetics, comparison: slower
Structure (SMILES): CCC(C)n1ncn(-c2ccc(N3CCN(c4ccc(OCC5COC(Cn6cncn6)(c6ccc(Cl)cc6Cl)O5)cc4)CC3)cc2)c1=O (stereo not shown) [Pure ITZ, Itraconazole]
